Experimental data: patent US20260274853A1, “BIFUNCTIONAL COMPOUNDS CONTAINING PYRIMIDINE DERIVATIVES FOR DEGRADING CYCLIN-DEPENDENT KINASE 2 VIA UBIQUITIN PROTEASOME PATHWAY” (NIKANG THERAPEUTICS, INC., priority 2022, published 2026)

What was measured:
CDK2 [1] = target: T1, CDK2 (Homo sapiens, UniProt P24941); assay: Inhibition of CDK2: phospho-Rb (S807/811) HTRF measurement in OVCAR3 cells; type: cell-based; conditions: 24 h compound treatment, read-out: pRb (nM), IC50 in pRB(S807/811) assay
T1 construct: High-Throughput Measurement of Cellular Endogenous CDK2; endogenous in cells; host or cells: OVCAR3

CDK2 [2] = target: T1, CDK2; assay: CDK2 HTRF assay: cellular endogenous CDK2 level in OVCAR3 cells; type: cell-based; conditions: 24 hours compound treatment, read-out: DC50 (half maximal degradation concentration of CDK2)
Procedure, shortened: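 Endogenous CDK2 degradation in OVCAR3 cells after 24 h compound treatment at 0.3–10,000 nM. Lysates assayed with an HTRF total-CDK2 two-antibody kit, TR-FRET 665/620 ratio normalized to DMSO. DC50 from four-parameter logistic fit, reported as potency bins.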

| Compound | IC50 (CDK2 [1]) [nM] | DC50 (CDK2 [2]) [nM] |
| --- | --- | --- |
| O=C1CCC(N2CC3CCC(C2)N3Cc2cccc(S(=O)(=O)N3CCC(Nc4ncc(C(F)(F)F)c(-c5cnn(CC(F)(F)F)c5)n4)CC3)c2)C(=O)N1 (stereo not shown) [Example 65, 3-(8-(3-((4-((4-(1-(2,2,2-trifluoro-ethyl)-1H-pyrazol-4-yl)-5-(trifluoro-methyl)pyrimidin-2-yl)amino)-piperidin-1-yl)sulfonyl)benzyl)-3,8-diazabicyclo-[3.2.1]octan-3-yl)-piperidine-2,6-dione] | < 100 | < 100 |
| Cn1nc(N2CCC(=O)NC2=O)c2ccc(C3CCN(Cc4cccc(S(=O)(=O)N5CCC(Nc6ncc(C(F)(F)F)c(-c7cnn(CC(F)(F)F)c7)n6)CC5)c4)CC3)c(F)c21 [Example 64, 1-(7-fluoro-1-methyl-6-(1-(3-((4-((4-(1-(2,2,2-trifluoroethyl)-1H-pyrazol-4-yl)-5-(trifluoromethyl)pyrimidin-2-yl)amino)-piperidin-1-yl)sulfonyl)-benzyl)-piperidin-4-yl)-1H-indazol-3-yl)dihydro-pyrimidine-2,4(1H,3H)-dione] | < 100 | < 100 |
| Cn1nc(N2CCC(=O)NC2=O)c2ccc(N3CCN(CC4CCN(S(=O)(=O)N5CCC(Nc6ncc(C(F)(F)F)c(-c7cnn(CC(F)(F)F)c7)n6)CC5)CC4)CC3)cc21 [Example 86, 1-(1-methyl-6-(4-((1-((4-((4-(1-(2,2,2-trifluoroethyl)-1H-pyrazol-4-yl)-5-(trifluoromethyl)pyrimidin-2-yl)-amino)piperidin-1-yl)sulfonyl)-piperidin-4-yl)methyl)piperazin-1-yl)-1H-indazol-3-yl)dihydropyrimidine-2,4(1H,3H)-dione] | < 100 | < 100 |
| Cn1nc(N2CCC(=O)NC2=O)c2ccc(C3CCN(CC4CCCC(S(=O)(=O)N5CCC(Nc6ncc(C(F)(F)F)c(-c7cnn(CC(F)(F)F)c7)n6)CC5)C4)CC3)cc21 (stereo not shown) [Example 89, 1-(1-methyl-6-(1-((3-((4-((4-(1-(2,2,2-trifluoroethyl)-1H-pyrazol-4-yl)-5-(trifluoromethyl)pyrimidin-2-yl)amino)-piperidin-1-yl)sulfonyl)-cyclohexyl)-methyl)piperidin-4-yl)-1H-indazol-3-yl)dihydropyrimidine-2,4(1H,3H)-dione] | < 100 | < 100 |
| O=C1CCC(N2C(=O)c3cc(F)c(N4CCN(Cc5cccc(S(=O)(=O)N6CCC(Nc7ncc(C(F)(F)F)c(-c8cnn(CC(F)(F)F)c8)n7)CC6)c5)CC4)cc3C2=O)C(=O)N1 (stereo not shown) [Example 1, 2-(2,6-dioxopiperidin-3-yl)-5-fluoro-6-(4-(3-((4-((4-(1-(2,2,2-trifluoroethyl)-1H-pyrazol-4-yl)-5-(trifluoromethyl)pyrimidin-2-yl)amino)piperidin-1-yl)sulfonyl)benzyl)piperazin-1-yl)isoindoline-1,3-dione] | 100 to 500 | 100 to 500 |
